Calls of active or inactive are those of the source. No cut-off for these calls is given here.
Experiments:
[1] = Photophysical property of the compound in water assessed as fluorescence quantum yield under 450 nm photoirradiation with blue light lamp by U-4100 spectrophotometric analysis; assay type: physicochemical; parameters: unit not given here; conditions: buffer
[2] = Photophysical property of the compound in MeOH assessed as fluorescence quantum yield under 450 nm photoirradiation with blue light lamp by U-4100 spectrophotometric analysis; assay type: physicochemical; parameters: unit not given here
[3] = Photophysical property of the compound assessed as singlet oxygen quantum yield under 15 W photoirradiation with blue LED light by EPR spectrophotometric analysis; assay type: physicochemical; parameters: unit not given here
[4] = Drug localization in lysosome of human HepG2 cells at 2 uM incubated for 2 hrs by Lyso-Tracker staining based confocal fluorescence microscopy; assay type: ADME, subcellular; conditions: hepg2, 2 h
[5] = system: HepG2; test: Cytotoxicity against human HepG2 cells assessed as cell viability incubated for 4 hrs under dark condition by MTT assay; assay type: functional, cell-based; conditions: HepG2, 4 h
[6] = Phototoxicity against human HepG2 cells assessed as cell viability preincubated with compound for 4 hrs followed by light irradiation with 450 nm blue LED lamp for 10 mins and measured after 24 hrs by MTT assay; assay type: functional, cell-based; conditions: HepG2, light or radiation study
[7] = Phototoxic index, ratio of IC50 for cytotoxicity against human HepG2 cells incubated for 4 hrs under dark condition by MTT assay to IC50 for cytotoxicity against human HepG2 cells preincubated with compound for 4 hrs followed by light irradiation with 450 nm blue LED lamp for 10 mins and measured after 24 hrs by MTT assay; assay type: functional
[8] = Drug localization in nucleus of human HepG2 cells at 2 uM incubated for 2 hrs by […] staining based confocal fluorescence microscopy; assay type: ADME, subcellular; conditions: hepg2, 2 h
[9] = Drug localization in mitochondria of human HepG2 cells at 2 uM incubated for 2 hrs by MitoTracker red CMXRos staining based confocal fluorescence microscopy; assay type: ADME; conditions: hepg2, 2 h
[10] = system: HepG2; test: (§1) Induction of apoptosis in human HepG2 cells assessed as chromatin condensation by measuring increase in blue fluorescence at 0.3 uM preincubated with compound for 4 hrs followed by light irradiation with 450 nm blue LED lamp for 10 mins and measured after 24 hrs by Hoechst 33342 staining based confocal microscopic analysis; assay type: functional, cell-based; conditions: time 1690.0 min
[11] = system: HepG2; test: as §1, with “in red” for “in blue”, “by PI” for “by Hoechst 33342”; assay type: functional, cell-based; conditions: time 1690.0 min
[12] = system: HepG2; test: Induction of ferroptosis in human HepG2 cells assessed as downregulation of Keap1 expression preincubated with compound for 4 hrs followed by light irradiation with blue LED lamp for 10 mins and measured after 24 hrs in presence of Fer-1 by Western blot analysis; assay type: functional, cell-based; conditions: time 1690.0 min
[13] = system: HepG2; test: Induction of ferroptosis in human HepG2 cells assessed as downregulation of Gpx4 expression preincubated with compound for 4 hrs followed by light irradiation with blue LED lamp for 10 mins and measured after 24 hrs in presence of Fer-1 by Western blot analysis; assay type: functional, cell-based; conditions: time 1690.0 min
[14] = system: HepG2; test: Induction of ferroptosis in human HepG2 cells assessed as downregulation of Fth1 expression preincubated with compound for 4 hrs followed by light irradiation with blue LED lamp for 10 mins and measured after 24 hrs in presence of Fer-1 by Western blot analysis; assay type: functional, cell-based; conditions: time 1690.0 min
[15] = system: HepG2; test: Induction of ferroptosis in human HepG2 cells assessed as cell viability preincubated with compound for 4 hrs followed by light irradiation with 450 nm blue LED lamp for 10 mins and measured after 24 hrs in presence of 50 uM Fer-1 by MTT assay relative to control; assay type: functional; conditions: time 1690 min; 28.17 h
[16] = system: HepG2; test: Induction of apoptosis in human HepG2 cells assessed as effect on PARP level preincubated with compound for 4 hrs followed by light irradiation with blue LED lamp for 10 mins and measured after 24 hrs by Western blot analysis; assay type: functional, cell-based; conditions: time 1690.0 min
[17] = system: HepG2; test: Induction of apoptosis in human HepG2 cells assessed as effect on caspase-3 level preincubated with compound for 4 hrs followed by light irradiation with blue LED lamp for 10 mins and measured after 24 hrs by Western blot analysis; assay type: functional, cell-based; conditions: time 1690.0 min
[18] = system: HepG2; test: Induction of apoptosis in human HepG2 cells assessed as increase in Bax expression preincubated with compound for 4 hrs followed by light irradiation with blue LED lamp for 10 mins and measured after 24 hrs by Western blot analysis; assay type: functional, cell-based; conditions: time 1690.0 min
[19] = system: HepG2; test: Induction of apoptosis in human HepG2 cells assessed as change in Bcl-2 level preincubated with compound for 4 hrs followed by light irradiation with blue LED lamp for 10 mins and measured after 24 hrs by Western blot analysis; assay type: functional, cell-based; conditions: time 1690.0 min
[20] = system: HepG2; test: Induction of apoptosis in human HepG2 cells assessed as reduction in Bcl-2/Bax ratio preincubated with compound for 4 hrs followed by light irradiation with blue LED lamp for 10 mins and measured after 24 hrs by Western blot analysis; assay type: functional, cell-based; conditions: time 1690.0 min
[21] = system: HepG2; test: Induction of apoptosis in human HepG2 cells assessed as cytochrome C release from mitochondria preincubated with compound for 4 hrs followed by light irradiation with blue LED lamp for 10 mins and measured after 24 hrs by Western blot analysis; assay type: functional, cell-based; conditions: time 1690.0 min
[22] = system: HepG2; test: Induction of mitochondrial damage in human HepG2 cells assessed as change in mitochondrial morphology at 1 uM preincubated with compound for 4 hrs followed by light irradiation with blue LED lamp for 10 mins and measured after 24 hrs by confocal microscopic analysis; assay type: functional, cell-based; conditions: time 1690.0 min
[23] = system: Mitochondrial membrane; test: Induction of mitochondrial membrane potential loss in human HepG2 cells at 3 uM incubated for 4 hrs in presence of light irradiation by TMRE staining based fluorescence microscopic analysis; assay type: cell membranes
[24] = system: HepG2; test: Antiproliferative activity against human HepG2 cells cultured as 3D spheroids assessed as inhibition of cell growth at 5 to 10 uM pretreated with 450 nm light irradiation and compound for 10 mins and measured at day 5 by fluorescence microscopic analysis; assay type: functional, cell-based; conditions: dose 5-10 µM, time 7210.0 min
[25] = system: HepG2; test: Antiproliferative activity against human HepG2 cells cultured as 3D spheroids assessed as inhibition of cell growth at 5 uM pretreated with 450 nm light irradiation and compound for 10 mins and measured at day 5 by fluorescence microscopic analysis; assay type: functional, cell-based; conditions: time 7210.0 min
[26] = Drug localization in endoplasmic reticulum of human HepG2 cells at 2 uM incubated for 2 hrs by ER-Tracker Blue staining based confocal fluorescence microscopy; assay type: ADME, subcellular; conditions: hepg2, 2 h
[27] = system: HepG2; test: as §1, with “0.1” for “0.3”; assay type: functional, cell-based; conditions: time 1690.0 min
[28] = system: HepG2; test: as §1, with “in red” for “in blue”, “at 0.1” for “at 0.3”, “by PI” for “by Hoechst 33342”; assay type: functional, cell-based; conditions: time 1690.0 min
[29] = system: HepG2; test: Induction of ferroptosis in human HepG2 cells assessed as cell death preincubated with compound for 4 hrs followed by light irradiation with 450 nm blue LED lamp for 10 mins and measured after 24 hrs in presence of ferrostatin-1 by MTT assay; assay type: functional, cell-based; conditions: time 1690.0 min
[30] = system: HepG2; test: Induction of ferroptosis in human HepG2 cells assessed as cell death preincubated with compound for 4 hrs followed by light irradiation with 450 nm blue LED lamp for 10 mins and measured after 24 hrs in presence of 50 uM ferrostatin-1 by MTT assay; assay type: functional, cell-based; conditions: time 1690.0 min
[31] = system: HepG2; test: Induction of ferroptosis in human HepG2 cells assessed as cell viability preincubated with compound for 4 hrs followed by light irradiation with 450 nm blue LED lamp for 10 mins and measured after 24 hrs in presence of necrostatin-1 by MTT assay; assay type: functional, cell-based; conditions: time 1690.0 min
[32] = system: HepG2; test: Induction of ferroptosis in human HepG2 cells assessed as cell viability preincubated with compound for 4 hrs followed by light irradiation with 450 nm blue LED lamp for 10 mins and measured after 24 hrs in presence of 3-methyladenine by MTT assay; assay type: functional, cell-based; conditions: time 1690.0 min
[33] = system: HepG2; test: Induction of ferroptosis in human HepG2 cells assessed as cell viability preincubated with compound for 4 hrs followed by light irradiation with 450 nm blue LED lamp for 10 mins and measured after 24 hrs in presence of chloroquine by MTT assay; assay type: functional, cell-based; conditions: time 1690.0 min

Activity [1] | Activity [2] | Activity [3] | SMILES | IC50 [5] [µM] | IC50 [6] [µM] | Ratio IC50 [7] | further results
31.49 | 79.66 | 13.06 | CCN(CC)c1ccc2cc(-c3nc4ccc(OCCCN5CCOCC5)cc4c(=O)[nH]3)c(=O)oc2c1 | 12.4 | 0.38 | 32.52 | Drug uptake [4]: Active
8.72 | 69.6 | 27.22 | CCN(CC)c1ccc2cc(-c3nc4ccc(OCc5cn(CCC[P+](c6ccccc6)(c6ccccc6)c6ccccc6)nn5)cc4c(=O)[nH]3)c(=O)oc2c1.[Br-] | 46.7 | 0.28 | 166.89 | Drug uptake [9]: Active; Activity [10]: Active; Activity [11]: Active; Activity [12]: Active; Activity [13]: Active; Activity [14]: Active; Activity [15]: ~70%; Activity [16]: Active; Activity [17]: Active; Activity [18]: Active; Activity [19]: inactive; Activity [20]: Active; Activity [21]: Active; Activity [22]: Active; Activity [23]: Active; Activity [24]: Active; Activity [25]: Active
7.55 | 59.27 | 30.08 | CCN(CC)c1ccc2cc(-c3nc4ccc(OCc5cn(CCNS(=O)(=O)c6ccc(C)cc6)nn5)cc4c(=O)[nH]3)c(=O)oc2c1 | 36.7 | 0.15 | 244.93 | Drug uptake [26]: Active; Activity [27]: Active; Activity [28]: Active; Activity [29]: Active; Activity [30]: Active; Activity [31]: Active; Activity [32]: Active; Activity [33]: Active

Continued, molecule first:

SMILES | Activity [1] | Activity [2] | Activity [3] | IC50 [5] [µM] | IC50 [6] [µM] | Ratio IC50 [7] | further results
CCN(CC)c1ccc2cc(-c3nc4ccc(OCCN5CCCCC5)cc4c(=O)[nH]3)c(=O)oc2c1 | 15.68 | 47.65 | 24.5 | 3.95 | 0.11 | 35.9 | Drug uptake [8]: Active
CCN(CC)c1ccc2cc(-c3nc4ccc(O)cc4c(=O)[nH]3)c(=O)oc2c1 | < 5 | 36.66 | 12.86 | 57.6 | 24.5 | 2.35 | 

Reference: ChEMBL document CHEMBL6092198, “Coumarin-Quinazolinone based photosensitizers: Mitochondria and endoplasmic reticulum targeting for enhanced phototherapy via different cell death pathways” (Eur J Med Chem, 2024)
